{"source": "paper PMC11784013", "about": "“Potassium molybdate blocks APN-dependent coronavirus entry by degrading receptor via PIK3C3-mediated autophagy” (Journal of Virology, 2024)", "key": {"[1]": {"system": "PIK3C3-BECN1-ATG14 complex", "assay": "Co-IP and confocal analysis of PtdIns3K complex assembly in ST cells", "type": "cell-based, porcine", "conditions": "36 h", "experimental": "Fig 8 PM promotes PIK3C3-BECN1-ATG14 complex assembly by enhancing PIK3C3 Ser249 phosphorylation. (A) ST cells were transfected with pCMV-Myc-PIK3C3 and pCDNA3.1-Flag-BECN1 for 12 h and then treated with PM (10 mM) for 36 h. The Co-IP was carried out by Flag or Myc Ab, followed by western blot analysis. (B) ST cells were transfected with pCDNA3.1-Flag-BECN 1 and pCDNA3.4-His-ATG14 for 12 h and treated with PM (10 mM) for 36 h. The Co-IP was performed with Flag or […] Ab, followed by western blot detection. (C–E) ST cells were transfected with pCMV-Myc-PIK3C3, pCDNA3.1-Flag-BECN1, and pCDNA3.4-His-ATG14 for 12 h, and PM (10 mM) was added to the cells for 36 h. Then Co-IP was performed with a Myc, Flag, and His Ab individually, and all IPs, input, and phosphorylation of PIK3C3 (Ser249), BECN1 (Ser14), and ATG14 (Ser29) were detected by western blot. (F) ST cells were transfected with pCMV-Myc-PIK3C3, pCDNA3.1-Flag-BECN1, and pCDNA3.4-His-ATG14 for 12 h, and PM (10 mM) was added to the cells for 36 h, which detected by IFA, scale bar: 20 µm. (G) Quantification of PIK3C3-BECN1-ATG14 complex (merged signal) from F using Image J software. (H) ST cells were transfected with pCMV-Myc-PIK3C3 or pCMV-Myc-PIK3C3 mutant, pCDNA3.1-Flag-BECN1 and pCDNA3.4-His-ATG14 for 12 h and then treated with PM (10 mM) for 36 h. Then Co-IP was performed with a Myc, Flag, and His Ab individually, and all IPs, input, and phosphorylation of PIK3C3 (Ser249), BECN1 (Ser14), and ATG14 (Ser29) were detected by western blot. Results are presented as mean ± SD of data from three independent experiments. ***, P ≤ 0.001.\nCotransfected cells were washed with cold PBS twice and lysed with NP40 lysis buffer (Beyotime, China, P0013F) supplemented with 1 mM PMSF (Beyotime, China, ST506) and phosphatase inhibitors (Beyotime, China, P1096). […] Immunoprecipitated proteins were detected by western blotting. […]"}, "[2]": {"system": "APN", "assay": "APN expression in ST cells and porcine intestinal organoids (western blot, IFA)", "type": "cell-based", "conditions": "PM 10 mM; for APN level, western blot, relative to WT without PM (=1) / APN level, western blot quantified by Image J, relative to no PM (=1): PRCV 0.1 MOI; for APN level, western blot quantified by Image J, relative to no PM (=1): ST cells", "experimental": "Fig 5 PM blocks TGEV infection by degrading APN expression. (A, D, and G) ST cells (A) or intestinal organoids monolayer (D) or apical-out intestinal organoids (G) were treated with PM (10 mM) at 2, 4, 8, and 16 h, which was collected and determined by western blot. (B, E, and H) ST cells (B) or intestinal organoids monolayer (E) or apical-out intestinal organoids (H) were treated with PM (10 mM) at 16 h, which was measured by IFA, scale bar: 20 µm. (C, F, and I) ST cells (C) or intestinal organoids monolayer (F) or apical-out intestinal organoids (I) were treated with PM (10 mM) and infected with 0.1 MOI TGEV at 2, 4, 8, and 16 h. The cell samples were harvested and detected by western blot. (J) ST cells were transfected with empty vector or pCMV-HA-APN (pig) plasmids for 24 h, which was treated with H2O or PM and then infected with 0.1 MOI TGEV for 16 h. The cell samples were detected by western blot. All western blot results were calculated by Image J. All experiments were performed in triplicate.\nCotransfected cells were washed with cold PBS twice and lysed with NP40 lysis buffer (Beyotime, China, P0013F) supplemented with 1 mM PMSF (Beyotime, China, ST506) and phosphatase inhibitors (Beyotime, China, P1096). Lysis buffer containing cells was added to 20 µL of protein A+G agarose beads (Beyotime, China, P2055) and IgG (Santa Cruz, USA, 2025) on a rotating device for 4 h at 4°C to remove nonspecific proteins, after which the mixture was centrifuged at 2,500 rpm for 5 min. The supernatant was harvested, and anti-Flag/Myc/His/IgG antibodies were added to the samples on a rocking platform overnight at 4°C. Subsequently, 40 µL of protein A+G agarose beads were added to the supernatant containing the antibody, which was incubated for 4 h at 4°C on a rotating device. After washing with lysis buffer three times, the immunoprecipitates were collected by centrifugation, and the supernatant was discarded. Immunoprecipitated proteins were detected by western blotting. For the western blot, the proteins were separated by SDS‒PAGE and transferred onto a PVDF membrane (GE, USA, 10600023). The membranes were blocked in 5% nonfat milk at room temperature for 2 h and then incubated with specific primary antibodies overnight. Subsequently, the membrane was incubated with the secondary antibody for 1 h at room temperature. Finally, the proteins on the membranes were visualized with WesternBright ECL (Advansta, USA, K-12045-D50).\nFig. S5. PM blocks PRCV infection by degrading APN expression. (A) ST cells were treated with PM (10 mM) and infected with 0.1 MOI PRCV at 2 h, 4 h, 8 h and 16 h. The cell samples were harvested and determined by western blot. All western blot results were calculated by Image J. All experiments were performed in triplicate.\nFig. S8. PM inhibits PRCV infection by degrading APN via PIK3C3-mediated autophagy. (A-C) WT ST cells and PIK3C3 KO ST cells were treated with PM (10 mM) and infected with PRCV (0.1 MOI) for 16 h. Then the APN, PIK3C3, ATG14, BECN1, P62, PRCV N and LC3 were detected by western blot (A), and viral titers and PRCV N mRNA level were determined by TCID50 (B) and RT-qPCR (C) . (D-F) WT ST cells and PIK3C3 KO ST cells transfected with pCMV-Myc and pCMV-Myc-PIK3C3 respectively for 24 h were treated with PM (10 mM) and infected with PRCV (0.1 MOI) for 16 h. The APN, PIK3C3, P62, PRCV N and LC3 were determined by western blot (D). TCID50 (E) and RT-qPCR (F) were performed to detect viral titers and PRCV N m RNA level. All western blot results were calculated by Image J. Results are presented as mean ± SD of data from three independent experiments […]"}}, "data": [{"smiles": "[K+].[K+].[O]=[Mo](=[O])([O-])[O-]", "note": "[PM, potassium molybdate]", "values": [{"measurement": "PIK3C3 Ser249 phosphorylation", "setting": "[1]; ST cells co-transfected with Myc-PIK3C3, Flag-BECN1, His-ATG14, PM 10 mM", "value": "upregulation of PIK3C3 Ser249 phosphorylation"}, {"measurement": "colocalization of Myc-PIK3C3, Flag-BECN1 and His-ATG14 (confocal microscopy)", "setting": "[1]; ST cells, PM 10 mM", "value": "enhanced the colocalization"}, {"measurement": "interaction between Myc-PIK3C3 and Flag-BECN1 (Co-IP)", "setting": "[1]; ST cells, PM 10 mM", "value": "increased after PM treatment"}, {"measurement": "APN level, western blot, relative to WT without PM (=1)", "setting": "[2]; Fig. S8A, PIK3C3 KO ST cells, 16 h", "value": 0.88}, {"measurement": "APN level, western blot, relative to WT without PM (=1)", "setting": "[2]; Fig. S8A, WT ST cells, 16 h", "value": 0.15}, {"measurement": "APN level, western blot, relative to WT without PM (=1)", "setting": "[2]; Fig. S8D, PIK3C3 KO ST cells with PIK3C3-Myc, 16 h", "value": 0.14}, {"measurement": "APN level, western blot, relative to WT without PM (=1)", "setting": "[2]; Fig. S8D, PIK3C3 KO ST cells without PIK3C3-Myc, 16 h", "value": 0.87}, {"measurement": "APN level, western blot, relative to WT without PM (=1)", "setting": "[2]; Fig. S8D, WT ST cells with pCMV-Myc, 16 h", "value": 0.1}, {"measurement": "APN expression in ST cells", "setting": "[2]; 2-16 h, western blot and IFA", "value": "decreased APN expression in ST cells"}, {"measurement": "APN expression in intestinal organoid monolayers and apical-out organoids", "setting": "[2]; absence or presence of TGEV, different time points, western blot and IFA", "value": "decreased ex vivo APN expression"}, {"measurement": "APN level, western blot quantified by Image J, relative to no PM (=1)", "setting": "[2]; 2 h", "value": 0.53}, {"measurement": "APN level, western blot quantified by Image J, relative to no PM (=1)", "setting": "[2]; 4 h", "value": 0.31}, {"measurement": "APN level, western blot quantified by Image J, relative to no PM (=1)", "setting": "[2]; 8 h", "value": 0.19}, {"measurement": "APN level, western blot quantified by Image J, relative to no PM (=1)", "setting": "[2]; 16 h", "value": 0.01}]}]}
